From ChEMBL document CHEMBL4431375, “Stereochemistry Balances Cell Permeability and Solubility in the Naturally Derived Phepropeptin Cyclic Peptides” (ACS Med Chem Lett, 2016)
Converted amounts (≈) assume the structure as drawn.

Key:
[1] = Thermodynamic aqueous solubility of the compound at 2 mM and pH 7.4 measured after 20 hrs by HPLC analysis; format: physicochemical; settings: aqueous medium, read-out: Therm_solubility
[2] = Apparent passive permeability in MDCK cells expressing MDR1 (unknown origin) at 5 uM measured after 60 mins by LC-MS/MS analysis; format: ADME, cell-based, Canis lupus familiaris; settings: dog
[3] = Metabolic stability in human plasma assessed as compound degradation at 2 uM measured after 30 mins by LC-ESI/MS analysis; format: ADME, cell-free; settings: 0.5 h
[4] = Octanol-water partition coefficient, log D of the compound at pH 7.4 by shake flask method; format: physicochemical

**Q.** For CC[C@H](C)[C@@H]1NC(=O)[C@@H](CC(C)C)NC(=O)[C@H](Cc2ccccc2)NC(=O)[C@@H]2CCCN2C(=O)[C@@H](Cc2ccccc2)NC(=O)[C@H](CC(C)C)NC1=O, which solubility thermodynamic at 20 h, 2000 µM [1] is on record?
**A.** 10 µg/mL (≈ 13.7 µM)

**Q.** And the Papp at 1 h, 5 µM [2]?
**A.** 40 ×10⁻⁶ cm/s

**Q.** And the Stability [3]?
**A.** Stable

**Q.** Which results are given for CC(C)C[C@@H]1NC(=O)[C@H](C(C)C)NC(=O)[C@@H](CC(C)C)NC(=O)[C@H](Cc2ccccc2)NC(=O)[C@@H]2CCCN2C(=O)[C@@H](Cc2ccccc2)NC1=O?
**A.** solubility thermodynamic at 20 h, 2000 µM [1]: 50 µg/mL (≈ 69.7 µM); Papp at 1 h, 5 µM [2]: 39 ×10⁻⁶ cm/s; logD [4]: 2.33; Stability [3]: Stable

**Q.** What does the source list for CC(C)C[C@@H]1NC(=O)[C@H](C(C)C)NC(=O)[C@@H](CC(C)C)NC(=O)[C@H](CC(C)C)NC(=O)[C@H]2CCCN2C(=O)[C@@H](Cc2ccccc2)NC1=O?
**A.** solubility thermodynamic at 20 h, 2000 µM [1]: 150 µg/mL (≈ 220 µM); Papp at 1 h, 5 µM [2]: 8 ×10⁻⁶ cm/s; logD [4]: 2.37; Stability [3]: Stable

**Q.** For CC[C@H](C)[C@@H]1NC(=O)[C@@H](CC(C)C)NC(=O)[C@H](Cc2ccccc2)NC(=O)[C@H]2CCCN2C(=O)[C@@H](Cc2ccccc2)NC(=O)[C@H](CC(C)C)NC1=O, which solubility thermodynamic at 20 h, 2000 µM [1] is on record?
**A.** 30 µg/mL (≈ 41 µM)

**Q.** And the Papp at 1 h, 5 µM [2]?
**A.** 18 ×10⁻⁶ cm/s

**Q.** What about the Stability [3] of the same compound?
**A.** Stable

**Q.** For CC(C)C[C@@H]1NC(=O)[C@H](C(C)C)NC(=O)[C@@H](CC(C)C)NC(=O)[C@H](Cc2ccccc2)NC(=O)[C@H]2CCCN2C(=O)[C@@H](Cc2ccccc2)NC1=O, which solubility thermodynamic at 20 h, 2000 µM [1] is on record?
**A.** 70 µg/mL (≈ 97.6 µM)

**Q.** And the Papp at 1 h, 5 µM [2]?
**A.** 11 ×10⁻⁶ cm/s

**Q.** What about the logD [4] of the same compound?
**A.** 2.41

**Q.** And the Stability [3]?
**A.** Stable

**Q.** With CC[C@H](C)[C@@H]1NC(=O)[C@@H](CC(C)C)NC(=O)[C@H](CC(C)C)NC(=O)[C@@H]2CCCN2C(=O)[C@@H](Cc2ccccc2)NC(=O)[C@H](CC(C)C)NC1=O as the compound, how does the solubility thermodynamic at 20 h, 2000 µM [1] read?
**A.** 60 µg/mL (≈ 86.1 µM)

**Q.** What about the Papp at 1 h, 5 µM [2] of the same compound?
**A.** 40 ×10⁻⁶ cm/s

**Q.** And the logD [4]?
**A.** 2.63

**Q.** And the Stability [3]?
**A.** Stable

**Q.** For CC(C)C[C@@H]1NC(=O)[C@H](C(C)C)NC(=O)[C@@H](CC(C)C)NC(=O)[C@H](CC(C)C)NC(=O)[C@@H]2CCCN2C(=O)[C@@H](Cc2ccccc2)NC1=O, which solubility thermodynamic at 20 h, 2000 µM [1] is on record?
**A.** 170 µg/mL (≈ 249 µM)

**Q.** And the Papp at 1 h, 5 µM [2]?
**A.** 33 ×10⁻⁶ cm/s

**Q.** What about the logD [4] of the same compound?
**A.** 2.08

**Q.** And the Stability [3]?
**A.** Stable

**Q.** Which solubility thermodynamic at 20 h, 2000 µM [1] does the source give for CC[C@H](C)[C@@H]1NC(=O)[C@@H](CC(C)C)NC(=O)[C@H](CC(C)C)NC(=O)[C@H]2CCCN2C(=O)[C@@H](Cc2ccccc2)NC(=O)[C@H](CC(C)C)NC1=O here?
**A.** 70 µg/mL (≈ 100 µM)

**Q.** What about the Papp at 1 h, 5 µM [2] of the same compound?
**A.** 15 ×10⁻⁶ cm/s

**Q.** And the logD [4]?
**A.** 2.39

**Q.** What about the Stability [3] of the same compound?
**A.** Stable
